From patent publication US10399949B2, “NK1 receptor antagonist” (KISSEI PHARMACEUTICAL CO., LTD., priority 2015, dated 2019)

How the values were obtained:
human NK1 receptor = molecular target: T1, human NK1 receptor (Homo sapiens, UniProt P25103); test: Affinity for human NK1 receptor (125I-substance P receptor binding test, membrane fraction); details: membrane fraction of human NK1 receptor-expressing 293T cells, room temperature 60 minutes, read-out: pIC50 (inverse logarithm of the concentration required for 50% inhibition of 125I-substance P binding) (converted)
T1 construct: expressed in transfected cells; host or cells: 293T cells (RIKEN), transient transfection with pcDNA3.1(-) plasmid
T1 sequence (P25103 whole entry): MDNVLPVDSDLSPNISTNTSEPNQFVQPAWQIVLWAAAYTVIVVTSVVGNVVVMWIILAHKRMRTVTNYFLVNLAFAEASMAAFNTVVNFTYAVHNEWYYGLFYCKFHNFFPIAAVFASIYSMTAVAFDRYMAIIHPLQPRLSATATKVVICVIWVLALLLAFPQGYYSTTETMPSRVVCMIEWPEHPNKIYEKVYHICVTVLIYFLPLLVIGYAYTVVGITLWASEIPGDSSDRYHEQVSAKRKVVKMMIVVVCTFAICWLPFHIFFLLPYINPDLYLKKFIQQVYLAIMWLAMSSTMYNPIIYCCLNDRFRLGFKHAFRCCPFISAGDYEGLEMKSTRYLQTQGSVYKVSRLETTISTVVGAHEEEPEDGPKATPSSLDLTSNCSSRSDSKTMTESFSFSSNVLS
Procedure: Affinity for Human NK1 Receptor
(3) Measurement of Binding Affinity to Human NK1 Receptor
(3-1) Preparation of Membrane Fraction from Human NK1 Receptor-Expressing Cells
Human NK1 receptor-expressing cells were prepared in a 175 cm^2 culture flask (Nippon Becton Dickinson). The formation of a complex of the human NK1 receptor expression plasmid and Lipofectamine 2000 was performed by calculating the culture area ratio and increasing the scale of the method described in the above 2-4 by the ratio. The human NK1 receptor-expressing cells were collected in a buffer solution for the membrane fraction preparation (50 mM Tris (Wako Pure Chemical), 120 mM sodium chloride (Wako Pure Chemical Industries), 5 mM potassium chloride (Wako Pure Chemical Industries), 1 mM ethylenediaminetetraacetic acid (Sigma), 0.002 mg/mL chymostatin (Peptide Institute), 0.04 mg/bacitracin (Wako Pure Chemical Industries), 0.005 mg/mL phosphoramidon (Peptide Institute) and 0.5 mM phenylmethylsulfonyl fluoride (Wako Pure Chemical Industries), pH7.4) and centrifuged at 1,880 g for 10 minutes, and the cell sediment was suspended in the buffer solution for the membrane fraction preparation. After freezing and thawing the cells once, the cells were homogenized using a Dounce-type homogenizer (cooled on ice, 1000 rpm, 20 times). The homogenized cell suspension was centrifuged at 20,000 rpm for 10 minutes, and the supernatant was removed to obtain cell sediment. The cell sediment was suspended again in the buffer solution for the membrane fraction preparation and homogenized using a Dounce-type homogenizer (cooled on ice, 1000 rpm, 30 times). The cell suspension was centrifuged at 20,000 rpm for 10 minutes, and the supernatant was removed to obtain cell sediment. The same homogenization and centrifugation were repeated again, and final cell sediment was obtained. The final cell sediment was suspended in a buffer solution for the receptor binding test (50 mM Tris (Wako Pure Chemical Industries), 3 mM manganese chloride (Wako Pure Chemical Industries), 0.002 mg/mL chymostatin (Peptide Institute), 0.04 mg/bacitracin (Wako Pure Chemical Industries) and 0.02% bovine serum albumin (Sigma), pH 7.4), and the protein concentration was measured using BCA Protein Assay Kit (Pierce).
(3-2) Receptor Binding Test
The buffer solution for the receptor binding test was dispensed to the wells of a 96-well assay plate (Greiner) at 22.5 μL/well. DMSO solutions of a test compound, which were prepared at an 80-time higher concentration using 100% dimethyl sulfoxide (DMSO), were added to the wells at 2.5 μL/well (final concentrations of 1 nM to 100 nM), and the solutions were mixed. As a radiolabeled ligand, ^125I-substance P (Substance P, [^125I]Tyr^8-, PerkinElmer) was used. ^125I-substance P was diluted with the buffer solution for the receptor binding test to a concentration resulting in […] and added to the 96-well assay plate, and the solutions were mixed. The membrane fraction prepared from the human NK1 receptor-expressing cells was diluted with the buffer solution for the receptor binding test to a concentration resulting in 8 to 10 μg/well, suspended until the suspension became in such a homogenous state that the suspension could flow through a 27G injection needle smoothly and then added to the 96-well assay plate at 150 μL/well. Then, the plate was incubated at room temperature for 60 minutes while shaking the plate. […]

human CYP3A4 = molecular target: T2, human CYP3A4 (Homo sapiens, UniProt P08684); test: Inhibitory effect on CYP3A4 (Luciferin-IPA); type: in vitro ADME; details: test compound 10 μM, 30-minutes pre-incubation, Luciferin-IPA 3 μM
T2 construct: purchased BD Biosciences
T2 sequence (P08684 whole entry): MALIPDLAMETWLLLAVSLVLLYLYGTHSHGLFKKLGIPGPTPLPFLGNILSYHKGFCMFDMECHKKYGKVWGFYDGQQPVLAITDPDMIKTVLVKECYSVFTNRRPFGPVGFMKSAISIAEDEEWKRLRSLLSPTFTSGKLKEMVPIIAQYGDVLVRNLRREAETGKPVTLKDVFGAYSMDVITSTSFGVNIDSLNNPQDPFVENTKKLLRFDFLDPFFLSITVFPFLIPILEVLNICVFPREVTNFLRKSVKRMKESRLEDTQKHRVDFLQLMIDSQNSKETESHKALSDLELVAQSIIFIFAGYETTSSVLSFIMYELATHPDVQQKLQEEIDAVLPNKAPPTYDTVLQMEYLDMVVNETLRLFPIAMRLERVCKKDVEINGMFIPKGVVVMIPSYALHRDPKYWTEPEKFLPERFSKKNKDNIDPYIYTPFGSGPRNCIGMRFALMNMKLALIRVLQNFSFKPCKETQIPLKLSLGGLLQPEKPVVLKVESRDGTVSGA
Procedure: Inhibitory Effect on CYP3A4
The dimethyl sulfoxide (DMSO) solution of the test compound with a concentration 1000 times higher than the evaluation concentration was prepared, and a reaction solution was prepared by diluting the solution. Enzyme reaction was performed by incubating in a potassium phosphate buffer solution (pH 7.4) containing 1 μM to 10 μM test compound, 3.2 mM magnesium chloride, 0.2 pmol human CYP3A4 (BD Biosciences), 0.5 mM reduced nicotinamide adenine dinucleotide phosphate (NADPH) and 3 μM Luciferin-IPA (Promega) at 37° C. for 10 minutes. The volume of the reaction solution was 50 μL/well. The 30-minutes pre-incubation group was incubated at 37° C. for 30 minutes before adding the substrate, the Luciferin-IPA solution (12.5 μL/well). At the end of the enzyme reaction, 50 μL/well of a Luciferin detection reagent (Promega) was added to the wells, and the plate was left at room temperature for 20 minutes. Then, the emission intensities were measured with Infinite M1000 (TECAN), and the enzyme activities (%) relative to the value of the group to which the test compound was not added. As a comparative example, aprepitant, which is an NK1 receptor antagonist, was tested in the same manner.
Test was measured by the above test method, and the results are shown in Table 9 when the concentration of the test compound was 10 μM. In the table, Ex. No. means the Example number, and Pre-incubation (30 min) (%) means the enzyme activities (%) of the 30-minutes pre-incubation groups using the test compounds.

NK1 receptor = molecular target: T3, NK1 receptor (Meriones unguiculatus, UniProt Q5DUB1); test: Effect on foot-tapping induced by NK1 receptor agonist GR73632 in gerbil; type: in vivo; details: male gerbil; 0.3 mg/kg from the jugular vein; GR73632 into the cerebral ventricle after 4 hours; foot-tapping period during 30 minutes
T3 construct: from tissue; host or cells: living male gerbil, central nervous system
T3 sequence (Q5DUB1 whole entry): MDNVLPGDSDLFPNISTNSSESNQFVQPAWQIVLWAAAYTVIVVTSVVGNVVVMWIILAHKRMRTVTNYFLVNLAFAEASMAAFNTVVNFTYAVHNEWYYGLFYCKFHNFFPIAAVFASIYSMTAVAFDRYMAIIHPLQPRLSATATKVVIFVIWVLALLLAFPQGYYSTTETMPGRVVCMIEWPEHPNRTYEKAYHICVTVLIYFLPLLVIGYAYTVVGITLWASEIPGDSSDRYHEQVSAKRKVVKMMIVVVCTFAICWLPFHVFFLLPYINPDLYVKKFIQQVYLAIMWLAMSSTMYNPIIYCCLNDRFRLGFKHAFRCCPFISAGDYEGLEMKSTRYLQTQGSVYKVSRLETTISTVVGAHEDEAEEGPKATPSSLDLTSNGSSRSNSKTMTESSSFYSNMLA
Procedure: (1) Effect on Foot-tapping
The test compound solution was prepared by dissolving the test compound in a vehicle (a mixture of 50% N,N-dimethylacetamide (Wako Pure Chemical Industries), 30% propylene glycol (Wako Pure Chemical Industries), 4% 2-hydroxypropyl-β-cyclodextrin (Wako Pure Chemical Industries) and 16% distilled water).
(§1) A male gerbil (Japan SLC) was anesthetized with isoflurane, and 0.3 mg/kg of a test compound was administered from the jugular vein. After 4 hours, GR73632 (5 pmol/5 μL saline), which is an NK1 receptor agonist, was administered into the cerebral ventricle at the part 1 mm lateral to and 4.5 mm below the bregma in the head, under anesthesia with isoflurane. After the administration, the gerbil was moved to an observation cage, and the foot-tapping period during 30 minutes after the recovery of the righting reflex was measured. As a comparative example, aprepitant, which is an NK1 receptor antagonist, was tested in the same manner. The foot-tapping inhibition rate (%) of each test compound was calculated by the following equation. Foot-tapping inhibition rate (%)={1−(Foot-tapping period when test compound was administered)/(Foot-tapping period when solvent was administered)}×100 (2) Measurement of Drug Concentrations
In the table, Ex. No. means the Example number. Inhibition (%) means the foot-tapping inhibition rate, and Conc. […]

[1] = Measurement of drug concentrations in the brain after foot-tapping test; type: in vivo; details: male gerbil; 0.3 mg/kg from the jugular vein; brain extracted after foot-tapping was finished; LC/MS
Procedure: as §1
After foot-tapping was finished, laparotomy was performed immediately under anesthesia with ether, and a blood sample was taken from the abdominal vena cava. At the same time, the brain was extracted. Through a quantitative analysis using liquid chromatography-mass spectrometry (LC/MS), the concentrations of the test compound in the plasma and the brain were measured.
In the table, Ex. No. means the Example number. […]

SMILES | IC50 (human NK1 receptor) | Preincubation (30 min) (%) (enzyme activities relative to group without test compound) (human CYP3A4) | Inhibition(%) (foot-tapping inhibition rate) (NK1 receptor) | Conc. (nM) (drug concentration in the brain) [1]
Cc1cc(F)ccc1[C@H]1CN(C[C@H]2CC[C@H](CC(=O)O)CC2)CCN1C(=O)N(C)[C@H](C)c1cc(C(F)(F)F)cc(C(F)(F)F)c1 [Example 5, trans-{4-[(S)-4-{[(R)-1-(3,5-Bistrifluoromethylphenyl)ethyl]methylcarbamoyl}-3-(4-fluoro-2-methylphenyl)piperazin-1-ylmethyl]cyclohexyl}acetic acid] | 0.851 nM | 21% | 100% | 181 nM
Cc1cc(F)ccc1[C@H]1CN(C[C@H]2CC[C@@H](CC(=O)O)CC2)CCN1C(=O)N(C)[C@H](C)c1cc(C(F)(F)F)cc(C(F)(F)F)c1 [Example 4, cis-{4-[(S)-4-{[(R)-1-(3,5-Bistrifluoromethylphenyl)ethyl]methylcarbamoyl}-3-(4-fluoro-2-methylphenyl)piperazin-1-ylmethyl]cyclohexyl}acetic acid] | 0.851 nM | 18% | 100% | 162 nM
